Reference: patent publication US4906467A, “Novel, long-duration treatment for glaucoma” (priority 1988, dated 1990)
“Also recorded” adds a separate entry of the source.

How the values were obtained:
[1] = rabbit, in vivo
[2] = system: RABBIT INTRAOCULAR PRESSURE; assay: Effect of topical 12(R)-HETE on rabbit intraocular pressure (pneumotometer); assay type: in vivo; details: for intraocular pressure, difference from baseline (mean ± SEM): n = 6
Protocol: A solution of 12(R)-HETE was prepared by dissolving 50 μg 12(R)-HETE in 1 ml ethanol and diluting to give aliquots containing 0.5 or 1.0 μg 12(R)-HETE in each of several containers. These could be frozen at -78° C. with or without ethanol. Before use, aliquots were warmed, ethanol was removed (if necessary) and sterile phosphate buffered saline (PBS) was added to give a concentration of 0.01 mg 12(R)-HETE/ml PBS. Rabbits were treated by administering 10 to 50 μl of 12(R)-HETE in PBS topically to the each eye of a 1.5 kg rabbit. Control rabbits were treated with PBS alone. Intraocular pressure was measured on a conventional pneumotometer, using a sensor size appropriate for the eye to be measured.
The pressure in each eye of the rabbits was measured several times before beginning the experiment to establish a baseline. Pressure was measured again just after administration of the test compound, then every 30 minutes for 180 minutes, daily for six days, and again on days 9 and 11. […] Table 1 illustrates the mean and standard error of the pressure difference from baseline in six animals treated with 0.5 μg 12(R)-HETE (per eye) compared with three controls, only one of which was tested after the first day.

[3] = Ocular side effects after topical administration in vivo (corneal thickness, clarity, side effects)
intraocular pressure [4] = assay: Intraocular pressure after topical 12(R)-HETE (general statement); assay type: in vivo; details: effective dose
[5] = system: corneal epithelial Na^+ -K^+ -ATPase; details: corneal epithelium, in vitro; cited from earlier work
Na^+ -K^+ -ATPases = details: cited from earlier work
[6] = system: ciliary body Na^+ -K^+ -ATPase; details: cited from earlier work
intraocular pressure [7] = details: cited from earlier work; for effect on intraocular pressure: in vivo
aqueous humor formation = details: in vivo; cited from earlier work
[8] = in vivo; cited from earlier work

CCCCC/C=C\C[C@@H](O)/C=C/C=C\C/C=C\CCC[14C](=O)O [1-(^14 C)-12(R)-HETE]
eye tissues with highest levels of 12(R)-HETE and its metabolites [1]: The highest levels were found in the cornea, ciliary bodies and trabecular meshwork

CCCCCC=CC[C@@H](O)C=CC=CCC=CCCCC(=O)O [12(R)-HETE, 12(R)-hydroxy-eicosa-5,8,10,14-tetraenoic acid]
intraocular pressure, difference from baseline (mean ± SEM) ([2]; 0 min., 0.5 μg per eye topical): -0.6 ± 0.9 mm Hg | onset and duration of intraocular pressure drop ([2]; 0.5 μg per eye, rabbits, Table 1): short onset, sustained pressure drop | intraocular pressure in test animals compared with control animals ([2]; 0.5 μg per eye, vs PBS controls): significantly below the pressure in control animals at all times after administration of the test drug | intraocular pressure, difference from baseline (mean ± SEM) ([2]; 30 min, 0.5 μg per eye topical): -3.5 ± 1.9 mm Hg | intraocular pressure, difference from baseline (mean ± SEM) ([2]; 60 min, 0.5 μg per eye topical): -5.6 ± 1.4 mm Hg | intraocular pressure, difference from baseline (mean ± SEM) ([2]; 90 min, 0.5 μg per eye topical): -5.6 ± 1.3 mm Hg | intraocular pressure, difference from baseline (mean ± SEM) ([2]; 120 min, 0.5 μg per eye topical): -7.2 ± 1.6 mm Hg | intraocular pressure, difference from baseline (mean ± SEM) ([2]; 150 min, 0.5 μg per eye topical): -4.7 ± 2.8 mm Hg | intraocular pressure, difference from baseline (mean ± SEM) ([2]; 180 min, 0.5 μg per eye topical): -4.1 ± 2.2 mm Hg | intraocular pressure, difference from baseline (mean ± SEM) ([2]; 2 days, 0.5 μg per eye topical): -3.2 ± 2.1 mm Hg | intraocular pressure, difference from baseline (mean ± SEM) ([2]; 3 days, 0.5 μg per eye topical): -4.2 ± 1.2 mm Hg | intraocular pressure, difference from baseline (mean ± SEM) ([2]; 4 days, 0.5 μg per eye topical): -4.2 ± 1.0 mm Hg | intraocular pressure, difference from baseline (mean ± SEM) ([2]; 5 days, 0.5 μg per eye topical): -5.2 ± 2.1 mm Hg | intraocular pressure, difference from baseline (mean ± SEM) ([2]; 6 days, 0.5 μg per eye topical): -6.0 + 1.2 mm Hg | intraocular pressure, difference from baseline (mean ± SEM) ([2]; 9 days, 0.5 μg per eye topical): -7.4 ± 1.7 mm Hg | intraocular pressure, difference from baseline (mean ± SEM) ([2]; 11 days, 0.5 μg per eye topical): -2.9 ± 1.5 mm Hg | intraocular pressure, difference from baseline (mean ± SEM) ([2]; Base (before dosing), 0.5 μg per eye, baseline 25.6 mm): 0.0 ± 1.4 mm Hg | untoward side effects ([3]; doses up to 1 μg per eye): no untoward side effects have been observed | corneal clarity ([3]; topical, in vivo): no loss of clarity | corneal thickness ([3]; topical, in vivo): no increase in corneal thickness | other observable side effects ([3]; topical, in vivo): no other observable side effects | duration of intraocular pressure decrease (intraocular pressure [4]): a decrease in intraocular pressure for a period of several days; also recorded: remains depressed for several days | onset of intraocular pressure drop (intraocular pressure [4]): drops within a few minutes | inhibition of Na+-K+-ATPase [5]: only the R isomer exhibits a significant inhibition of enzyme activity; also recorded: inhibit Na^+ -K^+ -ATPase isolated from the ciliary body and the corneal epithelium; also recorded: inhibit Na^+ -K^+ -ATPase in the corneal epithelium in vitro | inhibition of Na+-K+-ATPases (Na^+ -K^+ -ATPases): inhibitor of Na^+ -K^+ -ATPases | inhibition of Na+-K+-ATPase [6]: only the R isomer exhibits a significant inhibition of enzyme activity; also recorded: inhibit Na^+ -K^+ -ATPase isolated from the ciliary body

CCCCCC=CC[C@H](O)C=CC=CCC=CCCCC(=O)O [12(S)-HETE, reference compound]
inhibition of Na+-K+-ATPase [5]: only the R isomer exhibits a significant inhibition of enzyme activity | inhibition of Na+-K+-ATPase [6]: only the R isomer exhibits a significant inhibition of enzyme activity

CC(=O)OC1CN2CCC1CC2 (stereo not drawn) [Aceclidine]
effectiveness in reducing intraocular pressure compared with pilocarpine (intraocular pressure [7]; glaucoma): approximately as effective as pilocarpine in reducing intraocular pressure

CNC[C@H](O)c1ccc(O)c(O)c1 [Epinephrine]
effect on intraocular pressure (intraocular pressure [7]): reducing the intraocular pressure | effect on production of aqueous humor (aqueous humor formation): decreases production of aqueous humor

CC[C@@H]1C(=O)OC[C@@H]1Cc1cncn1C [Pilocarpine]
effect on intraocular pressure (intraocular pressure [7]): a transitory rise in intraocular pressure, followed by a more persistent fall | effect on pupil size / ciliary body tone / vision [8]: pupillary constriction, spasm of accomodation

CC(C)(C)NC[C@H](O)COc1nsnc1N1CCOCC1 [Timolol]
duration of beneficial effect (intraocular pressure [7]; glaucoma): about 7 hours | effect on intraocular pressure (intraocular pressure [7]): effective in reducing intraocular pressure | side effects [8]: The side effects are minimal, although systemic absorption of the drug can occur, leading to slowing of the heart | effect on production of aqueous humor (aqueous humor formation): appears to act by reducing the production of aqueous humor

CC(=O)Nc1nnc(S(N)(=O)=O)s1 [acetazolamide]
effect on intraocular pressure (intraocular pressure [7]): lowering intraocular pressure in patients with glaucoma | effect on production of aqueous humor (aqueous humor formation): reduces the rate of aqueous humor formation

CNCC(O)c1ccc(OC(=O)C(C)(C)C)c(OC(=O)C(C)(C)C)c1 (stereo not drawn) [dipivalyl epinephrine]
effect on intraocular pressure (intraocular pressure [7]): reducing the intraocular pressure | effect on production of aqueous humor (aqueous humor formation): decreases production of aqueous humor

C[C@@H]1O[C@@H](O[C@H]2C[C@@H](O)[C@]3(CO)[C@H]4[C@H](O)C[C@]5(C)[C@@H](C6=CC(=O)OC6)CC[C@]5(O)[C@@H]4CC[C@]3(O)C2)[C@H](O)[C@H](O)[C@H]1O [ouabain]
effect on intraocular pressure (intraocular pressure [7]): decrease intraocular pressure | side effects [8]: severe side effects including keratitis and inflammation of the cornea | inhibition of Na+-K+-ATPases (Na^+ -K^+ -ATPases): inhibit Na^+ -K^+ -ATPases
